We go through 16 compounds from ChEMBL document CHEMBL4359921, “Discovery of potent 4-aminoquinoline hydrazone inhibitors of NRH:quinoneoxidoreductase-2 (NQO2)” (Eur J Med Chem, 2019).

In general, IC50 refers to the concentration that gives 50% inhibition.

The subject of assay [1] is SK-OV-3. As to the kind of experiment: Cytotoxicity against human SKOV3 cells transfected with shRNA assessed as reduction in cell viability incubated for 96 hrs in presence of doxycycline by MTT assay. As to conditions: SK-OV-3, 96 h; call rule not given here.
For assay [2], the system named is SK-OV-3. As to the kind of experiment: Cytotoxicity against human SKOV3 cells assessed as reduction in cell viability incubated for 24 hrs by MTT assay. As to conditions: SK-OV-3, 24 h. A general note: Tetrazolium assays rely on reduction of a dye to a coloured formazan, in cell work by metabolically active cells.
Assay [3] relates to SK-OV-3. As to the kind of experiment: Cytotoxicity against human SKOV3 cells transfected with non-targeted vector assessed as reduction in cell viability incubated for 96 hrs in presence of doxycycline by MTT assay. As to conditions: SK-OV-3, 96 h.
The subject of assay [4] is TOV112D. As to the kind of experiment: Cytotoxicity against human TOV112D cells expressing NQO2 assessed as reduction in cell viability incubated for 96 hrs by MTT assay.
The subject of assay [5] is SK-OV-3. As to the kind of experiment: Cytotoxicity against human SKOV3 cells assessed as reduction in cell viability incubated for 96 hrs by MTT assay. As to conditions: SK-OV-3, 96 h.
The subject of assay [6] is TOV112D. The assay can be described thus: Cytotoxicity against human TOV112D cells transfected with empty vector assessed as reduction in cell viability incubated for 96 hrs by MTT assay.
The target in assay [7] is NAD(P)H dehydrogenase [quinone] 1 (Homo sapiens, UniProt P15559). The assay can be described thus: Inhibition of recombinant human NQO1 expressed in Escherichia coli using DCPIP as substrate by spectrophotometry.
Sequence of NAD(P)H dehydrogenase [quinone] 1 (P15559 whole entry): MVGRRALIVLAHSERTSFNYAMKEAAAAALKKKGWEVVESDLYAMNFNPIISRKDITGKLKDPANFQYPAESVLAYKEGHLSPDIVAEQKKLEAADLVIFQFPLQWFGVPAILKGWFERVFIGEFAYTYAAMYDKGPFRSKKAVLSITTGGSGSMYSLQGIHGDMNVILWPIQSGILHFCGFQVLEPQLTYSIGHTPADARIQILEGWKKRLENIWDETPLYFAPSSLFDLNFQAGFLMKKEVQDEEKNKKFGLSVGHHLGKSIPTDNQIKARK

As to `COc1ccc2nc(C)cc(N/N=C/c3cccc(OC)c3O)c2c1`, the half-maximal inhibitory concentration (IC50) in assay [1] is 2.78 µM; in assay [2], 2.1 µM; in assay [3] it was 2.7 µM; in assay [4] it was 3.77 µM; in assay [5], 2 µM; in assay [6] it was 3.4 µM.
As to `COc1ccc2nc(C)cc(N/N=C/c3c[nH]cn3)c2c1`, the IC50 in assay [1] turned out to be 6.73 µM; in assay [2] it was 32 µM; in assay [3] it was 6.9 µM; in assay [4], 3.72 µM; in assay [5], 4.2 µM; in assay [6], 3.65 µM.
Consider `COc1ccc2nc(C)cc(N/N=C/c3ccccc3)c2c1`, for which the half-maximal inhibitory concentration (IC50) in assay [2] worked out at 1.77 µM; in assay [5], 1.73 µM.
With `COc1ccc2nc(C)cc(N/N=C/Cc3ccccc3)c2c1`, the concentration for half-maximal inhibition (IC50) in assay [1] is 49.7 µM; in assay [2], 50 µM; in assay [7], “Not Active”; in assay [3], 44.7 µM; in assay [4], 41 µM; in assay [5] it was 40.7 µM. Moreover, the concentration for half-maximal inhibition (IC50) in assay [6] is 42.5 µM.
Regarding `COc1ccc2nc(C)cc(NN)c2c1`, the half-maximal inhibitory concentration (IC50) in assay [2] was 84 µM; in assay [5] it was 41 µM.
Consider `COc1ccc2nc(C)cc(N/N=C/c3ccc(C(=O)O)cc3)c2c1`, for which the IC50 is 61.3 µM in assay [1]; more than 100 µM in assay [2]; “Not Active” in assay [7]; 65 µM in assay [3]; more than 100 µM in assay [4]; 70 µM in assay [5]. Further, in assay [6], the IC50 is more than 100 µM.
Regarding `COc1ccc2nc(-c3ccccc3)cc(N/N=C/c3ccc(N(C)C)cc3)c2c1`, the IC50 is 1.57 µM in assay [2] and 1.53 µM in assay [5].
Consider `Oc1ccc(/C=C/c2cc(O)cc(O)c2)cc1` [RESVERATROL], for which the IC50 in assay [1] was determined as 39.7 µM; in assay [2] it was 91.7 µM; in assay [3] it was 29 µM; in assay [4], 11 µM; in assay [5] it was 36.3 µM; in assay [6], 10.7 µM.
In the case of `Nc1c2ccccc2nc2ccccc12` [AMINACRINE], the concentration for half-maximal inhibition (IC50) in assay [1] turned out to be 2.57 µM; in assay [2] it was 5.43 µM; in assay [3], 2.53 µM; in assay [4], 3.15 µM; in assay [5], 2.78 µM; in assay [6], 3.6 µM.
`COc1ccc2nc(-c3ccccc3)cc(N/N=C/c3cccc(OC)c3O)c2c1`: the figures for the concentration for half-maximal inhibition (IC50) in assay [2], in assay [7] and in assay [5] were 2.88 µM, “Not Active” and 2.73 µM, respectively.
As to `COc1ccc2nc(C)cc(NNC(=O)c3ccc(F)cc3)c2c1`, the IC50 in assay [1] is more than 100 µM; in assay [2], more than 100 µM; in assay [7], “Not Active”; in assay [3], more than 100 µM; in assay [4], 57.3 µM; in assay [5] it was more than 100 µM. Also, the IC50 in assay [6] was found to be 61.3 µM.
As to `COc1ccc2nc(-c3ccccc3)cc(N/N=C/c3c[nH]cn3)c2c1`, the IC50 was determined as 2.47 µM in assay [2], 0.425 µM in assay [7] (read-out: IC50) and 2.17 µM in assay [5].
For `COc1ccc2nc(C)cc(N/N=C/c3ccc(F)cc3)c2c1`, the IC50 in assay [2] and in assay [5] was 2.3 µM in each case.
As for `COc1ccc2nc(C)cc(NNC(=O)c3ccccc3)c2c1`, the results for the IC50 in assay [2] and in assay [5] were 68.3 µM and 43.3 µM, respectively.
Take `COc1ccc2nc(C)cc(N/N=C/c3ccc(O)cc3)c2c1`: the IC50 in assay [1] came to 2.58 µM; in assay [2], 2.75 µM; in assay [3] it was 2.87 µM; in assay [4], 2.98 µM; in assay [5] it was 2.3 µM; in assay [6], 3.17 µM.
Take `COc1ccc2nc(-c3ccccc3)cc(N/N=C/c3cccnc3)c2c1`: the IC50 in assay [2] is 2.8 µM; in assay [7], “Not Active”; in assay [5], 2.2 µM.
